According to patent US9403798B2, “Triazinone compound and T-type calcium channel inhibitor” (NISSAN CHEMICAL INDUSTRIES, LTD., priority 2012, dated 2016):

Molecular target: T1, Human T-type calcium channel (Cav 3.2) (Homo sapiens, UniProt O95180)
T1 construct: Edward Perez-Reyes, University of Virginia, USA; host or cells: HEK293
Assay: Calcium Influx Inhibition Assay
Assay type: cell-based
Details: Human T-type calcium channel (Cav 3.2) expressing HEK293 cells, FLIPR Calcium 4 fluorescence
Method: 1. Calcium Influx Inhibition Assay
Human T-type calcium channel (Cav 3.2) expressing HEK293 cells were obtained from Prof. Edward Perez-Reyes, University of Virginia, USA. The calcium-sensitive fluorescent dye used was FLIPR Calcium 4 Assay Kit (Molecular Devices). To a black 96-well plate with a clear bottom coated with type I collagen, the human T-type calcium channel (Cav 3.2) expressing HEK293 cells were seeded and cultured overnight, and the culture medium was removed. A solution of the calcium-sensitive fluorescent dye was added, and the plate was incubated at 37° C. in an atmosphere of 5% carbon dioxide for 30 minutes. To the plate, a diluted solution of a compound was added, and the whole was further incubated at 37° C. in an atmosphere of 5% carbon dioxide for 30 minutes. While fluorescence was continuously analyzed from the bottom with a FlexStation 3 (Molecular Devices), a calcium solution was added. […] From the rise in the fluorescence from the base line, the inhibition percentage was calculated. The logarithms of compound concentrations were plotted with respect to the inhibition activities to give an IC50 value.

T1 sequence (O95180 whole entry): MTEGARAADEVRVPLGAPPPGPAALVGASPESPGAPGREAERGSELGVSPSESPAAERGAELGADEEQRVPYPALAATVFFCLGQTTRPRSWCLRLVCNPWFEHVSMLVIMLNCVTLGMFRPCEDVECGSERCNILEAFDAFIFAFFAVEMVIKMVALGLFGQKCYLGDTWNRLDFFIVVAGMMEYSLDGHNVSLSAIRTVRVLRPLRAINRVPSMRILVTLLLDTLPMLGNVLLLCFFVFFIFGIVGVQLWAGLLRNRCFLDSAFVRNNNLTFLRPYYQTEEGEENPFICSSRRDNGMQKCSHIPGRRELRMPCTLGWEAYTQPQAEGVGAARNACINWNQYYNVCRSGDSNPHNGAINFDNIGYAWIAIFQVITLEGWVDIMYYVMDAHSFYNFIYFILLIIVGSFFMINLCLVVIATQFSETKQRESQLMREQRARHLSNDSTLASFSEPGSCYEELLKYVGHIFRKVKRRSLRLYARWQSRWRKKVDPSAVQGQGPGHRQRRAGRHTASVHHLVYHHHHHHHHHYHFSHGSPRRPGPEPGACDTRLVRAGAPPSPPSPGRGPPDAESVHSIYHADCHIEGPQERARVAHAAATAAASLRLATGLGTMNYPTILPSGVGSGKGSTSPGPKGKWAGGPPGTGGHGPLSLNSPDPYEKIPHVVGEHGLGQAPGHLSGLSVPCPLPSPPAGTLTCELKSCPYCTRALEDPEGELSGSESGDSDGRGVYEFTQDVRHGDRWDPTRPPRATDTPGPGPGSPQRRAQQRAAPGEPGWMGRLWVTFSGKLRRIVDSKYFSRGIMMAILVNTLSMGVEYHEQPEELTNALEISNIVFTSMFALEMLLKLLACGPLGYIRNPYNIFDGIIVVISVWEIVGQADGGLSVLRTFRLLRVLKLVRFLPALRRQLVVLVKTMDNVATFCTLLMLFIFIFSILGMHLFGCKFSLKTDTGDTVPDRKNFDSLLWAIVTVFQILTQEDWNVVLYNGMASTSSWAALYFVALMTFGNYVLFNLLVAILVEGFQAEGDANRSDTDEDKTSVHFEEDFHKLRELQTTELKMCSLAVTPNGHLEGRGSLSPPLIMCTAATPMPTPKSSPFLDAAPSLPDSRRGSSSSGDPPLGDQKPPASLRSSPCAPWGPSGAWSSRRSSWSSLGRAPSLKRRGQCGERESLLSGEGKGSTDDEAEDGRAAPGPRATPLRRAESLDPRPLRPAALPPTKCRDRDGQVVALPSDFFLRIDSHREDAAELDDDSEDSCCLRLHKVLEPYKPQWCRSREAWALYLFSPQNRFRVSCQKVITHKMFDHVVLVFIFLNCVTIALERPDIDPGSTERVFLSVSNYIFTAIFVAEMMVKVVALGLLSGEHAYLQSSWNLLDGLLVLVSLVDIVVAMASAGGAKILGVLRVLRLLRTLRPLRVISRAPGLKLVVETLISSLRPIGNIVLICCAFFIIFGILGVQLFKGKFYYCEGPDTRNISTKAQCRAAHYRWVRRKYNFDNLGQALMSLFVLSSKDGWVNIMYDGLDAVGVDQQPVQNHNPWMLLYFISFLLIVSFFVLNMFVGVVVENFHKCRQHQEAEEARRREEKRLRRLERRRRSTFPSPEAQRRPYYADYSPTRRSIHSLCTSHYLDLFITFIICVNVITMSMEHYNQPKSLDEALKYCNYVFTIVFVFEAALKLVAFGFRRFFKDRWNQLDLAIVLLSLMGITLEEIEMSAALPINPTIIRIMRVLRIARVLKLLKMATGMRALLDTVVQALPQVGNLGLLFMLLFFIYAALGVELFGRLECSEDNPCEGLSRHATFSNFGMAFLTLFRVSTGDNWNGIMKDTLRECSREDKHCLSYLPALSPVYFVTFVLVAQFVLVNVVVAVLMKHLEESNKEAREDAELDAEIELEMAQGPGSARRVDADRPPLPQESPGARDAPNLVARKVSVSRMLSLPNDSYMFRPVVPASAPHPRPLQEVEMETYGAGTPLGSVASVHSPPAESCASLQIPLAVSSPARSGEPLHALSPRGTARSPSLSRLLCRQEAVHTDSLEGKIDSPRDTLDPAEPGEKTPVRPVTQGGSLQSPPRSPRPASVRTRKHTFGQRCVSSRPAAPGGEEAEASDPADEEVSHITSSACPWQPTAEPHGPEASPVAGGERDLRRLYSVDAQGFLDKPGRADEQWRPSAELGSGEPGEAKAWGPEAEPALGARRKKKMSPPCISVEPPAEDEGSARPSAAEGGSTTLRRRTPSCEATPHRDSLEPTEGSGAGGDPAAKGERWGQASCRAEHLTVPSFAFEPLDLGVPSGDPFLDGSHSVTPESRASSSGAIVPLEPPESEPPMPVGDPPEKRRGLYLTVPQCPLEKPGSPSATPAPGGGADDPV

SMILES | IC50 [nM]
O=c1nc(N2CC=C(c3cn4c(n3)CCC4)CC2)ncn1Cc1ccc(C(F)(F)F)s1 [compound 283] | 510
O=c1nc(N2CC=C(c3cc(F)cc(F)c3)CC2)ncn1Cc1ccc(C(F)(F)F)s1 [compound 285] | 56
COc1ccc(C2=CCN(c3ncn(Cc4ccc(C(F)(F)F)s4)c(=O)n3)CC2)s1 [compound 300] | 160
CS(=O)(=O)NC1CN(c2ncn(Cc3ccc(C(F)(F)F)s3)c(=O)n2)CC=C1c1ccc(F)cc1 (centres unmarked) [compound 314] | 46
O=c1nc(N2CC=C(c3ccc(F)cc3)[C@H](O)C2)ncn1Cc1ccc(C(F)(F)F)s1 [compound 316] | 2.3
CC(=O)NC1CN(c2ncn(Cc3ccc(C(F)(F)F)s3)c(=O)n2)CC=C1c1ccc(F)cc1 (centres unmarked) [compound 317] | 56
NC1CN(c2ncn(Cc3ccc(C(F)(F)F)s3)c(=O)n2)CC=C1c1ccc(F)cc1 (centres unmarked) [compound 321] | 3.6
O=c1nc(N2CC=C(c3ccc(F)c(Cl)c3)[C@@H](O)C2)ncn1Cc1ccc(C(F)(F)F)s1 [compound 326] | 1.9
Cc1csc(C2=CCN(c3ncn(Cc4ccc(C(F)(F)F)s4)c(=O)n3)C[C@@H]2O)c1 [compound 327] | 4
Cc1cc(C2=CCN(c3ncn(Cc4ccc(C(F)(F)F)s4)c(=O)n3)C[C@@H]2O)cs1 [compound 333] | 1.8
Cc1nc(N2CCN(c3ccc(F)cc3)CC2)nc(=O)n1Cc1ccc(C(F)(F)F)s1 [compound 344] | 12
Cc1nc(N2CC=C(c3ccc(F)cc3)[C@@H](N)C2)nc(=O)n1Cc1ccc(C(F)(F)F)s1 [compound 348] | 4.5
Cc1ccc(C2=CCN(c3nc(C)n(Cc4ccc(C(F)(F)F)s4)c(=O)n3)C[C@@H]2O)cc1F [compound 349] | 1.1
Cc1nc(N2CC=C(c3ccc(F)c(Cl)c3)[C@@H](O)C2)nc(=O)n1Cc1ccc(C(F)(F)F)s1 [compound 350] | 1.1
Cc1cc(N2CCN(c3nc(C)n(Cc4ccc(C(F)(F)F)s4)c(=O)n3)CC2)cs1 [compound 357] | 13
Cc1nc(N[C@H]2C[C@@H](c3ccc(F)cc3)C2)nc(=O)n1Cc1ccc(C(F)(F)F)s1 [compound 360] | 83
Cc1csc(C2=CCN(c3nc(C)n(Cc4ccc(C(F)(F)F)s4)c(=O)n3)C[C@@H]2O)c1 [compound 362] | 1.5
Cc1ccc(N2CCN(c3nc(C)n(Cc4ccc(C(F)(F)F)s4)c(=O)n3)CC2)cc1 [compound 363] | 8.7
Cc1nc(N2CCN(c3nc(C)n(Cc4ccc(C(F)(F)F)s4)c(=O)n3)CC2)ccc1F [compound 365] | 13

SMILES | IC50 [nM]
Cc1nc(N2CCC3(CCN(c4ccc(F)cc4)C3)CC2)nc(=O)n1Cc1ccc(C(F)(F)F)s1 [compound 370] | 630
Cc1nc(N2CCN(c3ccccc3)CC(F)(F)C2)nc(=O)n1Cc1ccc(C(F)(F)F)s1 [compound 377] | 410
Cc1nc(N2CC=C(c3ccc(F)cc3)C(CO)C2)nc(=O)n1Cc1ccc(C(F)(F)F)s1 (centres unmarked) [compound 379] | 54
Cc1nc(N2CC3CCC(C2)N3c2ccc(F)cc2)nc(=O)n1Cc1ccc(C(F)(F)F)s1 [compound 380] | 310
Cc1nc(Nc2nc(-c3ccc(F)c(F)c3)cs2)nc(=O)n1Cc1ccc(C(F)(F)F)s1 [compound 383] | 89
Cc1ccc(C2=CCN(c3nc(C)n(Cc4ccc(Br)s4)c(=O)n3)C[C@@H]2O)cc1F [compound 392] | 1.3
O=c1nc(N2CC=C(c3ccc(F)c(Cl)c3)[C@@H](O)C2)ncn1Cc1ccc(Cl)s1 [compound 400] | 4.4
Cc1nc(N2CC=C(c3ccc(F)cc3)[C@@H](O)C2)nc(=O)n1Cc1ccc(Cl)s1 [compound 403] | 2
COc1nc(C2=CCN(c3ncn(Cc4ccc(C(C)(C)C)s4)c(=O)n3)C[C@@H]2O)ccc1Cl [compound 413] | 6.9
Cc1nc(C2=CCN(c3ncn(Cc4ccc(C(C)(C)C)s4)c(=O)n3)C[C@@H]2O)ccc1F [compound 415] | 16
Cc1cc(F)ccc1C1=CCN(c2nc(C)n(Cc3ccc(C(C)(C)C)s3)c(=O)n2)C[C@@H]1O [compound 423] | 40
O=c1nc(N2CC=C(c3ccc(F)c(Cl)c3)[C@@H](O)C2)ncn1Cc1cc2c(s1)CCCC2 [compound 428] | 5.5
Cc1nc(N2CC=C(c3ccc(F)cc3)[C@@H](O)C2)nc(=O)n1Cc1ccc(C(F)(F)F)o1 [compound 439] | 6.9
Cc1ccc(C2=CCN(c3nc(C)n(Cc4ccc(OS(=O)(=O)C(F)(F)F)nc4)c(=O)n3)C[C@@H]2O)cc1F [compound 448] | 16
COc1nc(C2=CCN(c3nc(C)n(Cc4ccc(OS(=O)(=O)C(F)(F)F)nc4)c(=O)n3)C[C@@H]2O)ccc1Cl [compound 450] | 46
Cc1nc(N2CC=C(c3ccc(F)cc3)[C@@H](O)C2)nc(=O)n1C(C)c1ccc(C(F)(F)F)s1 (some centres unmarked) [compound 453] | 24
CC(=O)OCc1nc(N2CC=C(c3ccc(F)cc3)[C@@H](O)C2)nc(=O)n1Cc1ccc(C(F)(F)F)s1 [compound 457] | 13
Cc1nc(N2CCN(c3ccc(F)cc3)CC2)nc(=O)n1CC12CC3CC(CC(C3)C1)C2 [compound 461] | 400

More lines, in order of falling IC50, values ahead:

IC50 [nM] | SMILES
860 | Cc1nc(N2CCN(C34CC5CC(CC(C5)C3)C4)CC2)nc(=O)n1Cc1ccc(C(F)(F)F)s1 [compound 382]
550 | CC(C)(C)OC(=O)N1C[C@@H](CNc2ncn(Cc3ccc(C(F)(F)F)s3)c(=O)n2)[C@H](c2ccc(F)cc2)C1 [compound 312]
330 | Cc1cc(N2CCN(c3ncn(Cc4ccc(C(F)(F)F)o4)c(=O)n3)CC2)cs1 [compound 436]
180 | O=c1nc(N2CC=C(c3ccc4ocnc4c3)CC2)ncn1Cc1ccc(C(F)(F)F)s1 [compound 295]
160 | O=c1nc(N2CC3C(C2)C3c2ccc(F)cc2)ncn1Cc1ccc(C(F)(F)F)s1 (centres unmarked) [compound 311]
160 | Cc1cccc(C2=CCN(c3ncn(Cc4cc5c(s4)CCCC5)c(=O)n3)C[C@@H]2O)n1 [compound 430]
64 | O=c1nc(N2CC=C(c3ccc(F)c(O)c3)CC2)ncn1Cc1ccc(C(F)(F)F)s1 [compound 304]
61 | CCCc1nc(N2CC=C(c3ccc(F)cc3)CC2)nc(=O)n1Cc1ccc(C(F)(F)F)s1 [compound 460]
45 | N#Cc1cc(C2=CCN(c3ncn(Cc4ccc(C(F)(F)F)s4)c(=O)n3)CC2)ccc1F [compound 278]
33 | O=c1nc(N[C@H]2C[C@@H](c3ccc(F)cc3)C2)ncn1Cc1ccc(C(F)(F)F)s1 [compound 318]
13 | Cc1nc(N2CC=C(c3ccc(F)cc3)CC2)nc(=O)n1Cc1ccc(C(F)(F)F)s1 [compound 340]
4.8 | COc1nc(C2=CCN(c3ncn(Cc4ccc(C(F)(F)F)s4)c(=O)n3)C[C@@H]2O)ccc1Cl [compound 329]
1.9 | Cc1nc(N2CC=C(c3ccc(F)cc3)[C@@H](O)C2)nc(=O)n1Cc1ccc(C(F)(F)C(F)(F)F)s1 [compound 454]
1.7 | COc1nc(C2=CCN(c3nc(C)n(Cc4ccc(Br)s4)c(=O)n3)C[C@@H]2O)ccc1Cl [compound 395]
0.94 | Cc1nc(N2CC=C(c3ccc(F)cc3)[C@@H](O)C2)nc(=O)n1Cc1ccc(C(F)(F)F)s1 [compound 342]
0.46 | O=c1nc(N2CC=C(c3ccc(F)cc3)[C@@H](O)C2)ncn1Cc1ccc(C(F)(F)F)s1 [compound 315]
